Results on one compound are retold here after patent US11712414B2, “Oral pharmaceutical composition for preventing or treating dry eye syndrome comprising rebamipide or a prodrug thereof” (SAMJIN PHARMACEUTICAL CO., LTD., priority 2013, dated 2023).

This test deals with animal model of dry eye syndrome. In words: Efficacy analysis of drugs using an animal model of dry eye syndrome (overall, FIGS. 1 to 15). It is filed as in vivo, C57BL/6 mice. The conditions noted are these: oral administration, overall statement. The source says: Experimental Example 1: Efficacy Analysis of Drugs Using an Animal Model of Dry Eye Syndrome
<1-1> Construction of an Animal Model of Dry Eye Syndrome
Eight-week old male C57BL/6 mice (Charles River laboratories) were quarantined for one week and divided into several groups of eight animals evenly according to their average body weight and standard deviation.
For experimental groups (administered with Examples […]), dry eye syndrome was induced by subcutaneous injection of scopolamine (2.5 mg/mL, Sigma-Aldrich) for 10 days with exposure to air draft (25-40% relative humidity) for 18 hours per day. Then, mice were orally administered with the suspensions of Examples 1 to 29, twice a day for total 10 days, respectively.
Meanwhile, for a normal group, neither the drug nor the vehicle was administered to normal mice. And, for a control group, the vehicle was administered to the mice with dry eye syndrome.

As to `O=C(NC(Cc1cc(=O)[nH]c2ccccc12)C(=O)O)c1ccc(Cl)cc1` (stereo not shown) [Rebamipide, 2-(4-chlorobenzoyl-amino)-3-[2(1H)-quinolon-4-yl]propionic acid], the “therapeutic effects on dry eye syndrome” value is on record as “exhibits therapeutic effects on dry eye syndrome”.
